Laboratory results from patent US12552826B2, “PRMT5 inhibitors” (Merck Sharp & Dohme LLC, priority 2018, dated 2026).

Target: T1, PRMT5 (Homo sapiens, UniProt O14744)
T1 construct: endogenous in cells; host or cells: MCF-7
Experiment: PRMT5 Cell Target Engagement (TE) Assay
Assay type: cell-based
Conditions: MCF-7 cells, 3 days treatment, nuclear SDMA by high content imaging
From the text: The PRMT5 TE assay is a biomarker assay for identifying compounds that inhibit symmetric dimethylation of arginine (SDMA) of PRMT5 substrates. The following substrates have been reported for PRMT5: Histone H2A and H4 R3, Histone H3 R2, Histone H3 R8, spliceosome Sm proteins, ribosomal protein RPS10, p53, FEN1, nucleoplasmin, nucleolin, EGFR and EBNA. The assay will focus on detecting symmetrically dimethylated nuclear proteins using high content imaging technology. Detection of the expression of symmetrically dimethylated nuclear proteins is through a mixture of primary rabbit monoclonal antibodies to SDMA (CST 13222), which in turn recognized by an Alexafluor 488 dye-conjugated anti-rabbit IgG secondary antibody. The IN Cell Analyzer 2200 or Opera-Phenix measures nuclear Alexafluor 488 fluorescent dye intensity that is directly related to the level of expression of symmetrically dimethylated nuclear proteins at the single cell level. Nuclear AF488 dye intensities are compared to the mean value for DMSO treated cells (MIN) to report percent of inhibition for each compound-treated well.
In this assay, the cell potency (EC50) of each compound was determined from a ten point (1:3 serial dilution; top compound concentration of 10000 nM) titration curve using the following outlined procedure. Each well of a BD falcon collagen coated black/clear bottom 384-well plate was seeded with 4000 MCF-7 cells in 30 μl media and allowed to attach for 5 hours. Media is ATCC-formulated Eagle's Minimum Essential Medium, Catalog No. 30-2003. The following components were added to the base medium: 0.01 mg/mL human recombinant insulin; fetal bovine serum to a final concentration of 10%. Additional 30 μl of media containing 2× compounds were added to each well. Cells were treated for 3 days in 37° C. CO2 incubator. On day 3, cells were fixed with Cytofix, permeabilized with 0.4% Triton-X-100/Cytofix, and washed with D-PBS without Ca/Mg. Cells were blocked with Licor Odessey blocking reagent for 1 hour at room temperature, followed by incubation with anti-SDMA (1:1000) antibody at 4° C. overnight. 1° antibody was removed, followed by three washings with DPBS without Ca/Mg and 0.05% Tween20. Hoechst (5 μg/mL), Cell Mask deep stain (1:2000) and Alexa488-conjugated goat anti-rabbit IgG (2 μg/mL) was added for 1 hour at room temperature. A final washing step (three washes) was performed before sealing plate for imaging on In Cell Analyzer 2200 or Opera-Phenix. Images from analyzer were uploaded to Columbus for image analysis. IC50 values were determined by 4 parameters robust fit of percent fluorescence units vs. (Log10) compound concentrations.

T1 sequence (O14744 whole entry): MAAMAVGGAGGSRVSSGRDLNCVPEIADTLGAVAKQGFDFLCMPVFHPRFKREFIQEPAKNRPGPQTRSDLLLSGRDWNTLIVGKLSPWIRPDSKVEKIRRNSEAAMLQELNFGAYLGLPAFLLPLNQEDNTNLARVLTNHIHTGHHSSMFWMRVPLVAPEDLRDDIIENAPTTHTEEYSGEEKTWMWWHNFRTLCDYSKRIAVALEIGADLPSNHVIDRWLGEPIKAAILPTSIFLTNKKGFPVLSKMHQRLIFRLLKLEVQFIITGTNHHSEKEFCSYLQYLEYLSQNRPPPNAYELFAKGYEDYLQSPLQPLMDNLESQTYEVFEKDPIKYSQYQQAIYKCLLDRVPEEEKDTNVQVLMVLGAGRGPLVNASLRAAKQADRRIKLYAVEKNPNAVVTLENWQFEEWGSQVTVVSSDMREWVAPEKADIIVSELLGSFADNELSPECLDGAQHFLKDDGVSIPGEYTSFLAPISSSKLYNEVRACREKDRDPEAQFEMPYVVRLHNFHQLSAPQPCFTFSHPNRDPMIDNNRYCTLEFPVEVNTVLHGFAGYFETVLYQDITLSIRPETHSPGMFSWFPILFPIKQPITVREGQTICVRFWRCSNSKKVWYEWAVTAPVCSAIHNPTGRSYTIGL
T1 sequence (Q9BQA1 whole entry partner): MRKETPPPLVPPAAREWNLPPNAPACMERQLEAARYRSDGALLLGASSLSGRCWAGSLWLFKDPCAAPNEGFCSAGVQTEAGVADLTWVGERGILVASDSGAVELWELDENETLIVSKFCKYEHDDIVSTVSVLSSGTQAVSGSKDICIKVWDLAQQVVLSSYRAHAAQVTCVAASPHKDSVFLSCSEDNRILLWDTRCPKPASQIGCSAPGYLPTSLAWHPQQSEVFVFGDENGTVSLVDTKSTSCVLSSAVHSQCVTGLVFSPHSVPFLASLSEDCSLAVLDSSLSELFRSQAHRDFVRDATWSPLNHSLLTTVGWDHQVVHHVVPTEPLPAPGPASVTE

`C[C@@]1(O)[C@@H]([C@H](O)c2cc(F)c(F)c(C(F)F)c2)O[C@@H](n2ccc3c(N)ncnc32)[C@@H]1O` [Example 64, 7-{(5R)-5-C-[3-(difluoromethyl)-4,5-difluorophenyl]-3-C-methyl-beta-D-ribofuranosyl}-7H-pyrrolo[2,3-d]pyrimidin-4-amine] showed an EC50 of 0.219 µM.

`Cc1ncnc2c1ccn2[C@@H]1O[C@H]([C@@H](C)c2cccc3c2CNCC3)[C@@](C)(O)[C@H]1O` [Example 87, (2R,3S,4R,5R)-3-methyl-5-(4-methyl-7H-pyrrolo[2,3-d]pyrimidin-7-yl)-2-((S)-1-(1,2,3,4-tetrahydroisoquinolin-8-yl)ethyl)tetrahydrofuran-3,4-diol] was tested, and the EC50 was 0.065 µM.

For `Cc1ccc([C@H](O)[C@H]2O[C@@H](n3ccc4c(N)ncnc43)[C@H](O)[C@]2(C)O)cc1` [Example 31, 7-[(5S)-3-C-methyl-5-C-(4-methylphenyl)-beta-D-ribofuranosyl]-7H-pyrrolo[2,3-d]pyrimidin-4-amine], the EC50 was > 10 µM.

In the case of `C[C@@]1(O)[C@@H]([C@H](O)c2cncc(C(F)F)c2)O[C@@H](n2ccc3c(N)ncnc32)[C@@H]1O` [Example 74, 7-{(5R)-5-C-[5-(difluoromethyl)pyridin-3-yl]-3-C-methyl-beta-D-ribofuranosyl}-7H-pyrrolo[2,3-d]pyrimidin-4-amine], the EC50 is reported as 2.71 µM.

Work on `C[C@@]1(O)[C@@H]([C@H](O)c2cccc(C(F)(F)F)c2)O[C@@H](n2ccc3c(N)ncnc32)[C@@H]1O` [Example 54, 7-{(5R)-3-C-methyl-5-C-[3-(trifluoromethyl)phenyl]-beta-D-ribofuranosyl}-7H-pyrrolo[2,3-d]pyrimidin-4-amine] yielded an EC50 of 0.391 µM.

In the case of `C[C@@]1(O)[C@@H]([C@@H](O)c2ccc(Cl)c(Cl)c2)O[C@@H](n2ccc3c(N)ncnc32)[C@@H]1O` [Example 14, 7-[(5S)-5-C-(3,4-dichlorophenyl)-3-C-methyl-beta-D-ribofuranosyl]-7H-pyrrolo[2,3-d]pyrimidin-4-amine], the EC50 is reported as > 10 µM.

`Cc1ncnc2c1ccn2[C@@H]1O[C@H]([C@H](O)c2cc(C(F)F)c(F)c3c2CNCC3)[C@@](C)(O)[C@H]1O` (single isomer, unassigned) [Example 89] was tested, and the EC50 was 0.076 µM.

Compound `C[C@@]1(O)[C@@H]([C@H](O)c2cccc(Cl)c2F)O[C@@H](n2ccc3c(N)ncnc32)[C@@H]1O` [Example 46, 7-[(5R)-5-C-(3-chloro-2-fluorophenyl)-3-C-methyl-beta-D-ribofuranosyl]-7H-pyrrolo[2,3-d]pyrimidin-4-amine] has an EC50 of 0.407 µM.

Compound `Cc1ncnc2c1ccn2[C@@H]1O[C@H]([C@](C)(O)c2cccc3c2CNCC3)[C@@](C)(O)[C@H]1O` [Example 88, (2R,3S,4R,5R)-2-((R)-1-hydroxy-1-(1,2,3,4-tetrahydroisoquinolin-8-yl)ethyl)-3-methyl-5-(4-methyl-7H-pyrrolo[2,3-d]pyrimidin-7-yl)tetrahydrofuran-3,4-diol] has an EC50 of 0.047 µM.

For `C[C@]1(O)[C@@H](O)[C@H](n2ccc3c(N)ncnc32)O[C@@H]1[C@](C)(O)c1ccc(F)c(F)c1` [Example 3, (2R,3S,4R,5R)-5-(4-amino-7H-pyrrolo[2,3-d]pyrimidin-7-yl)-2-((R)-1-(3,4-difluorophenyl)-1-hydroxyethyl)-3-methyltetrahydrofuran-3,4-diol], the EC50 was 0.145 µM.

Work on `Cc1ncnc2c1ccn2[C@@H]1O[C@H]([C@@H](C)c2cc(C(F)F)c(F)c3c2CNCC3)[C@@](C)(O)[C@H]1O` (single isomer, unassigned) [Example 93] yielded an EC50 of 0.0014 µM.

`C[C@@]1(O)[C@@H]([C@H](O)c2ccc(F)c(C(F)F)c2F)O[C@@H](n2ccc3c(N)ncnc32)[C@@H]1O` [Example 67, 7-{(5R)-5-C-[3-(difluoromethyl)-2,4-difluorophenyl]-3-C-methyl-beta-D-ribofuranosyl}-7H-pyrrolo[2,3-d]pyrimidin-4-amine] gave an EC50 of 0.435 µM.

`C[C@@]1(O)[C@@H]([C@H](O)c2cc(Cl)cc(C(F)(F)F)c2)O[C@@H](n2ccc3c(N)ncnc32)[C@@H]1O` [Example 60, 7-{(5R)-5-C-[3-chloro-5-(trifluoromethyl)phenyl]-3-C-methyl-beta-D-ribofuranosyl}-7H-pyrrolo[2,3-d]pyrimidin-4-amine] was tested, and the EC50 was 0.403 µM.

For `C[C@@]1(O)[C@@H]([C@H](O)c2ccc(F)c(F)c2)O[C@@H](n2ccc3c(N)ncnc32)[C@@H]1O` [Example 1, (2R,3S,4R,5R)-5-(4-amino-7H-pyrrolo[2,3-d]pyrimidin-7-yl)-2-((R)-(3,4-difluorophenyl)(hydroxy)methyl)-3-methyltetrahydrofuran-3,4-diol], the EC50 was 0.187 µM.

In the case of `C[C@H](c1cc(F)cc(C(F)F)c1)[C@H]1O[C@@H](n2ccc3c(N)ncnc32)[C@H](O)[C@]1(C)O` (single isomer, unassigned) [Example 83], the EC50 is reported as 0.12 µM.

Compound `C[C@]1(O)[C@@H](O)[C@H](n2ccc3c(N)ncnc32)O[C@@H]1[C@](C)(O)c1cc(C(F)F)ccn1` [Example 76, 7-{6-deoxy-5-C-[4-(difluoromethyl)pyridin-2-yl]-3-C-methyl-alpha-L-talofuranosyl}-7H-pyrrolo[2,3-d]pyrimidin-4-amine] has an EC50 of 1.2 µM.

`C[C@@]1(O)[C@@H]([C@H](O)c2cc(C(F)F)ccn2)O[C@@H](n2ccc3c(N)ncnc32)[C@@H]1O` [Example 72, 7-{(5R)-5-C-[4-(difluoromethyl)pyridin-2-yl]-3-C-methyl-beta-D-ribofuranosyl}-7H-pyrrolo[2,3-d]pyrimidin-4-amine] showed an EC50 of 2.06 µM.

`C[C@@]1(O)[C@@H]([C@@H](O)c2cncc(C(F)F)c2)O[C@@H](n2ccc3c(N)ncnc32)[C@@H]1O` [Example 75, 7-{(5S)-5-C-[5-(difluoromethyl)pyridin-3-yl]-3-C-methyl-beta-D-ribofuranosyl}-7H-pyrrolo[2,3-d]pyrimidin-4-amine] was tested, and the EC50 was > 10 µM.

Compound `C[C@@]1(O)[C@@H]([C@H](O)c2cc(F)cc(F)c2)O[C@@H](n2ccc3c(N)ncnc32)[C@@H]1O` [Example 22, 7-[(5R)-5-C-(3,5-difluorophenyl)-3-C-methyl-beta-D-ribofuranosyl]-7H-pyrrolo[2,3-d]pyrimidin-4-amine] has an EC50 of 0.059 µM.

For `C[C@]1(O)[C@@H](O)[C@H](n2ccc3c(N)ncnc32)O[C@@H]1[C@](C)(O)c1cccc(C(F)F)c1` [Example 62, 7-{6-deoxy-5-C-[3-(difluoromethyl)phenyl]-3-C-methyl-alpha-L-talofuranosyl}-7H-pyrrolo[2,3-d]pyrimidin-4-amine], the EC50 was 0.0094 µM.

`C[C@H](c1cc(F)cc(C(F)F)c1)[C@H]1O[C@@H](n2ccc3c(N)ncnc32)[C@H](O)[C@]1(C)O` (single isomer, unassigned) [Example 84] showed an EC50 of 0.253 µM.

`Cc1ncnc2c1ccn2[C@@H]1O[C@H]([C@](C)(O)c2cc(C(F)F)c(F)c3c2CNCC3)[C@@](C)(O)[C@H]1O` [Example 91, (2R,3S,4R,5R)-2-((R)-1-(6-(difluoromethyl)-5-fluoro-1,2,3,4-tetrahydroisoquinolin-8-yl)-1-hydroxyethyl)-3-methyl-5-(4-methyl-7H-pyrrolo[2,3-d]pyrimidin-7-yl)tetrahydrofuran-3,4-diol] was tested, and the EC50 was 0.00054 µM.

`C[C@@]1(O)[C@@H]([C@H](O)c2cc(Cl)cc(Cl)c2)O[C@@H](n2ccc3c(N)ncnc32)[C@@H]1O` [Example 18, 7-[(5R)-5-C-(3,5-dichlorophenyl)-3-C-methyl-beta-D-ribofuranosyl]-7H-pyrrolo[2,3-d]pyrimidin-4-amine] was tested, and the EC50 was 0.014 µM.

In the case of `C[C@@]1(O)[C@@H]([C@H](O)c2ccnc(C(F)F)c2)O[C@@H](n2ccc3c(N)ncnc32)[C@@H]1O` [Example 78, 7-{(5R)-5-C-[2-(difluoromethyl)pyridin-4-yl]-3-C-methyl-beta-D-ribofuranosyl}-7H-pyrrolo[2,3-d]pyrimidin-4-amine], the EC50 is reported as 1.42 µM.

For `C[C@@]1(O)[C@@H]([C@@H](O)c2cccc(Cl)c2F)O[C@@H](n2ccc3c(N)ncnc32)[C@@H]1O` [Example 47, 7-[(5S)-5-C-(3-chloro-2-fluorophenyl)-3-C-methyl-beta-D-ribofuranosyl]-7H-pyrrolo[2,3-d]pyrimidin-4-amine], the EC50 was > 10 µM.

`C[C@@]1(O)[C@@H]([C@H](O)c2cccc(F)c2F)O[C@@H](n2ccc3c(N)ncnc32)[C@@H]1O` [Example 44, 7-[(5R)-5-C-(2,3-difluorophenyl)-3-C-methyl-beta-D-ribofuranosyl]-7H-pyrrolo[2,3-d]pyrimidin-4-amine] showed an EC50 of 1.06 µM.

`C[C@@]1(O)[C@@H]([C@@H](O)c2cc(Cl)cc(C(F)(F)F)c2)O[C@@H](n2ccc3c(N)ncnc32)[C@@H]1O` [Example 61, 7-{(5S)-5-C-[3-chloro-5-(trifluoromethyl)phenyl]-3-C-methyl-beta-D-ribofuranosyl}-7H-pyrrolo[2,3-d]pyrimidin-4-amine] was tested, and the EC50 was > 10 µM.
